This is an account of results in paper PMC8635623, “A click chemistry approach to pleuromutilin derivatives, evaluation of anti-MRSA activity and elucidation of binding mode by surface plasmon resonance and molecular docking” (Journal of Enzyme Inhibition and Medicinal Chemistry, 2021).

≈ marks a conversion by molar mass, not a printed value. Like-named read-outs stand apart in the source and are kept apart here.

For one test, the system named is S. aureus AD3. As to the kind of experiment: MIC/MBC by broth micro dilution. It is filed as cell-based. The settings on record: Staphylococcus aureus, S. aureus AD3 (clinical strain); for MIC: 37 °C, 24 h; for MBC: lowest concentration reducing viable counts by 99.9%. The method, boiled down:
(§1)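 CLSI broth microdilution in Mueller-Hinton broth, 0.016–32 µg/mL final, triplicates, 24 h at 37 °C. MBC: clear wells plated on MH agar, lowest concentration giving 99.9% reduction in viable counts.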

The test system of another test is S. aureus ATCC 29213. As to the kind of experiment: MIC/MBC by broth micro dilution. The conditions noted are these: Staphylococcus aureus; for MIC: ATCC29213, 37 °C, 24 h; for MBC: ATCC29213, lowest concentration reducing viable counts by 99.9%. In kind it is cell-based. The method, boiled down: as §1
In the next test the test system is S. aureus 144. Nature of the test: MIC/MBC by broth micro dilution. In kind it is cell-based. The conditions noted are these: Staphylococcus aureus, S. aureus 144 (clinical strain); for MIC: 37 °C, 24 h; for MBC: lowest concentration reducing viable counts by 99.9%. The essentials:
as §1

For test [1], the system named is MRSA ATCC 43300. As to the kind of experiment: MIC/MBC by broth micro dilution. The settings on record: for MIC: 37 °C, 24 h; for MBC: lowest concentration reducing viable counts by 99.9%. In kind it is cell-based, methicillin-resistant S. aureus. The essentials:
as §1

A further test concerns the target 50S ribosome. As to the kind of experiment: SPR binding studies. The settings on record: for Ka (association rate constant) / Kd (dissociation rate constant): PBST pH 7.4, compound immobilised, 50S ribosome 200-3200 nM. Set-up: species or system S. aureus. The method, then:
In order to gain some insight into the binding mode of the potent inhibitors, SPR experiments were performed. […] The response unit (RU) of surface resonance was compared to determine the different binding affinities between each compound and the 50S ribosome. The association rate constants (Ka) and dissociation rate constant (Kd) represent the rate of association and dissociation in the binding reaction, respectively. The equilibrium dissociation constant (KD) indicated the degree of dissociation of compounds and the 50S ribosome in the equilibrium state. Their binding curves during the experiment were shown in Figure 3, as well as the concentration gradient curves were shown in Figure SI 27–34.
SPR biosensing experiments were performed at 4 °C using the bScreen LB 991 Label-free Microarray System (Berthold Technologies, Germany) and the photo-cross-linker sensor chip. The BIODOT™ AD-1520 Array Printer (BIODOT Inc., USA) was used for printing samples and control on the chip surface. A UV Spectroirradiator 1020 (Amersham Life Science, USA) was used for the photo-cross-linking reaction quickly after the array print.
As described in the reference[32–34] with minor modifications, the ribosome of S. aureus were extracted and purified to obtain 50S ribosome. MRSA (ATCC 43300) was incubated overnight at 37 °C. The bacteria solution was inoculated into a new culture solution, and cells were collected at an OD600 = 1.5. The bacterial culture was centrifuged 3 times at 3,500 rpm using a TX-400 rotor at 4 °C for 30 min, and then the supernatant was discarded. Cells were washed twice with 10 mM Tris-HCl (pH = 7.5), and suspend the precipitate with buffer A (20 mM HEPES-HCl pH = 7.5, 100 mM NH4Cl, 21 mM Mg(OAc)2, 1 mM EDTA, 1 mM DTT). Cells were lysed by repeated (>3×) snap-freezing and thawing, then ultrasonic disintegration was performed. To remove cell debris, the crushed product was centrifuged at 20,000 rpm for 90 min at 4 °C.The lysate layered on 15 ml of a sucrose cushion (10 mM HEPES-HCl pH = 7.5, 500 mM KCl, 25 mM Mg(OAc)2, 1.1 M sucrose, 0.5 mM EDTA, 1 mM DTT) and centrifuged in the ultracentrifuge(Optima^TM TL 100) at 45,000 rpm using a type70Ti rotor at 4 °C for 15 h to obtain ribosomal particles. Pellet was resuspended in 3 ml of buffer E (10 mM HEPES-HCl pH = 7.5, 100 mM KCl, 1 mM Mg(OAc)2, 0.5 mM EDTA, 1 mM DTT), then layered on 9 ml of 7–30% sucrose gradient and ultracentrifuged at 17,100 rpm using a typeSW40Ti rotor at 4 °C for 15 h. The gradient was analysed on the AKTA explorer system. The fractions corresponding to 50S ribosome were collected and PEG 20000 was added to a final concentration of 4.5% w/v. Ribosomes were pelleted by centrifugation at 20,000 rpm for 12 min, the pellet was gently dissolved in 200 µL of storage buffer (10 mM HEPES-HCl pH = 7.5, 15 mM KCl, 60 mM NH4Cl, 10 mM Mg(OAc)2, 1 mM DTT) and then flash-frozen for storage at −80 °C.
Dilute these compounds to a concentration of 10 mM with DMSO as the stationary phase printing working solution. After that, the printing working solution was printed on the sensor chip by the array printer, and each sample was printed four times repeatedly. Four groups of positive control dots (12 rapamycin dots, 3 in each corner) were printed on the four corners of the sensor chip respectively. The sample dots were dried in vacuum, and the sensor chip was quickly transferred to the UV spectroirradiator for a photo-cross-linking reaction. Subsequently, the sensor chip was washed with DMF, methanol, and water for 15 min in turn, followed by blowing dry under nitrogen, and then assembled with Flowcell Cover.
The binding studies were performed with PBST running buffer (pH = 7.4, 0.1% Tween 20) at a constant flow rate of 0.5 µL/s in instrument. 50S Ribosome was diluted separately with PBST running buffer to 200 nM, 400 nM, 800 nM, 1600 nM and 3200 nM and injected consecutively for 600 s at associating stage, followed by running buffer for 360 s at each dissociating stage. […]

The test system of test [2] is MRSA ATCC 43300. As to the kind of experiment: Constant concentration time-kill curves. The settings on record: for concentration giving a bactericidal effect: time-kill, MRSA. It is filed as cell-based, methicillin-resistant S. aureus. The method, then:
The time-kill kinetic approach was used to investigate the anti-MRSA activity of compounds 50, 62 and 64. The experimental results were presented in graphic form in Figure 2. Compared with growth control, compounds 50 and 62 inhibited the reproduction of bacteria to a certain extent.
The time-kill curve determination is an in vitro bactericidal kinetics model, which is used to study the sustained killing effect of bacteria within 24 h at a certain drug concentration. The bactericidal activity of compounds 50, 62 and 64 was determined by the time-kill curve as reported in our previous work[18]^,[22]. MRSA grown in MH broth were diluted to approximately 1 × 10^6 CFU/mL. […] 100 µL of samples were collected from the subculture inoculums before culture (0 h) and 3 h, 6 h, 9 h and 24 h after culture, and serially diluted 10-flod with sterile saline. The dilution of each gradient (25 µL) was uniformly suspended on the MH agar plates. The total bacterial CFU/mL on the plates were counted to calculate the bacterial colonies after up to 20 h of incubation at 37 °C. The results are represented by Mean ± SD, with the log10 CFU/mL of bacteria counts as the ordinate and time as the abscissa, the time-kill curves of different concentrations of compounds against MRSA were established respectively.

[3] abbreviates: Staphylococcus aureus, read-out: MIC.
[4] abbreviates: 4 °C, PBST pH 7.4, KD = Kd/Ka, read-out: KD (equilibrium dissociation constant).

In general, MIC refers to the lowest concentration that inhibits growth of the organism. What is called MBC is the lowest tested concentration that kills the bacteria rather than only halting them. Broadly, the Kd is a measure of binding affinity in units of concentration. Regarding `C=C[C@]1(C)C[C@@H](OC(=O)Cn2cc(CN3CCN(c4ccccc4[N+](=O)[O-])CC3)nn2)[C@]2(C)[C@H](C)CC[C@]3(CCC(=O)[C@H]32)[C@@H](C)[C@@H]1O` [Compound 62, 22-(2-(4-(4-(2-Nitrophenyl)-piperazin-1-yl)-methyl)-1H-1,2,3-triazol-1-yl)-22-deoxy pleuromutilin], the MIC in the test with S. aureus AD3 was found to be 1 µg/mL (≈ 1.54 µM); in the test on S. aureus ATCC 29213 it was 2 µg/mL (≈ 3.08 µM); with S. aureus 144, 2 µg/mL (≈ 3.08 µM); with MRSA ATCC 43300 [1] (setting [3]) it was 1 µg/mL (≈ 1.54 µM). For the same molecule, the MBC in the test with S. aureus AD3 came to 4 µg/mL (≈ 6.17 µM); in the test with S. aureus ATCC 29213, 2 µg/mL (≈ 3.08 µM); against S. aureus 144, 4 µg/mL (≈ 6.17 µM); in the test on MRSA ATCC 43300 [1] (Staphylococcus aureus), 2 µg/mL (≈ 3.08 µM). The dissociation constant (Kd) is 17.7 µM on 50S ribosome (setting [4]) and 10 to 1000 µM on 50S ribosome (read-out: interaction intensity level for 50S ribosome (KD class)). In addition, the “Ka (association rate constant)” value in the test on 50S ribosome (4 °C) was determined as 734 M⁻¹ s⁻¹. Further, the “Kd (dissociation rate constant)” value in the test with 50S ribosome (4 °C) was 0.013 s⁻¹. Also, the time-kill kinetics result with MRSA ATCC 43300 [2] (8 × MIC, cultured for 24 h) is listed as “relatively anti-MRSA bacteriostatic kinetics”. The “concentration giving a bactericidal effect” value in the test on MRSA ATCC 43300 [2] is given as “higher than 4 × MIC”.
Consider `C=C[C@]1(C)C[C@@H](OC(=O)Cn2cc(CN3CCN(c4ccc([N+](=O)[O-])cc4)CC3)nn2)[C@]2(C)[C@H](C)CC[C@]3(CCC(=O)[C@H]32)[C@@H](C)[C@@H]1O` [Compound 64, 22-(2-(4-(4-(4-Nitrophenyl)-piperazin-1-yl)-methyl)-1H-1,2,3-triazol-1-yl)-22-deoxy pleuromutilin], for which the MIC in the test with S. aureus AD3 is 1 µg/mL (≈ 1.54 µM); with S. aureus ATCC 29213, 1 µg/mL (≈ 1.54 µM); in the test with S. aureus 144 it was 2 µg/mL (≈ 3.08 µM); with MRSA ATCC 43300 [1], 0.5 µg/mL (≈ 0.771 µM); in the test on MRSA ATCC 43300 [1] (setting [3]) it was 0.5 µg/mL (≈ 0.771 µM). The minimum bactericidal concentration (MBC) with S. aureus AD3 was 4 µg/mL (≈ 6.17 µM); in the test on S. aureus ATCC 29213 it was 2 µg/mL (≈ 3.08 µM); in the test on S. aureus 144, 4 µg/mL (≈ 6.17 µM); in the test on MRSA ATCC 43300 [1] (Staphylococcus aureus) it was 1 µg/mL (≈ 1.54 µM). For the same molecule, the equilibrium dissociation constant (Kd) on 50S ribosome (setting [4]) worked out at 0.636 µM. Besides, in the test with 50S ribosome (4 °C), the “Ka (association rate constant)” value stood at 1200 M⁻¹ s⁻¹. The “Kd (dissociation rate constant)” value with 50S ribosome (4 °C) stood at 0.000764 s⁻¹. Moreover, the “MRSA killing, log10 CFU/mL reduction” value with MRSA ATCC 43300 [2] (16 × MIC, after 3 h incubation) was 2.21 log10 CFU/mL. Also, the “bacterial growth inhibition, log10 CFU/mL reduction” value with MRSA ATCC 43300 [2] (16 × MIC, at 24 h) was 4.49 log10 CFU/mL. Besides, in the test on MRSA ATCC 43300 [2], the “concentration giving a bactericidal effect” value is listed as “higher than 4 × MIC”.
